Source: patent US12595246B2, “Crystalline and amorphous forms of N-(5-((4-ethylpiperazin-1-yl)methyl)pyridine-2-yl)-5-fluoro-4-(3-isopropyl-2-methyl-2H-indazol-5-yl)pyrimidin-2-amine and its salts, and preparation methods and therapeutic uses thereof” (BETA PHARMA, INC., priority 2019, dated 2026)

Assay: Dynamic vapor sorption (DVS) isotherm analysis, with XRPD before and after DVS
Type: physicochemical
Details: for change of crystalline form after DVS (XRPD): XRPD before and after DVS; for hygroscopicity rating by DVS isotherm analysis: rating in words, based on uptake at 80% RH

With `CCN1CCN(Cc2ccc(Nc3ncc(F)c(-c4cc(F)c5nc(C)n(C(C)C)c5c4)n3)nc2)CC1.Cc1ccc(S(=O)(=O)O)cc1` the “change of crystalline form after DVS (XRPD)” value (shortened to “change of crystalline form”) was “no change of crystalline form”, the “hygroscopicity by DVS isotherm analysis (uptake at 80% RH)” value (from here on “hygroscopicity … (uptake at 80% RH)”) was 1.67% and the “hygroscopicity rating by DVS isotherm analysis” value (from here on “hygroscopicity rating”) was “slightly hygroscopic”.

With `CCN1CCN(Cc2ccc(Nc3ncc(F)c(-c4cc(F)c5nc(C)n(C(C)C)c5c4)n3)nc2)CC1.Cl` [1⋅HCl (1:1; Form A)] the “change of crystalline form” value was “no change of crystalline form”, the “hygroscopicity … (uptake at 80% RH)” value was 3.64% and the “hygroscopicity rating” value was “hygroscopic”.

In the case of `CCN1CCN(Cc2ccc(Nc3ncc(F)c(-c4cc(F)c5nc(C)n(C(C)C)c5c4)n3)nc2)CC1.O=S(=O)(O)O` [Compound 1⋅H2SO4 (1:1; Form A)], the “change of crystalline form” value is reported as “some change of crystalline form”, the “hygroscopicity … (uptake at 80% RH)” value is reported as 26.42% and the “hygroscopicity rating” value is reported as “very hygroscopic”.

For `CCN1CCN(Cc2ccc(Nc3ncc(F)c(-c4cc(F)c5nc(C)n(C(C)C)c5c4)n3)nc2)CC1.O=P(O)(O)O` [Compound 1⋅H3PO4 (1:1)], the “change of crystalline form” value was “some change of crystalline form”, the “hygroscopicity … (uptake at 80% RH)” value was 3.16% and the “hygroscopicity rating” value was “hygroscopic”.

With `CCN1CCN(Cc2ccc(Nc3ncc(F)c(-c4ccc5nn(C)c(C(C)C)c5c4)n3)nc2)CC1` [freebase of 1 (Form D)] the “change of crystalline form” value was “no change of crystalline form”, the “hygroscopicity … (uptake at 80% RH)” value was 5.13% and the “hygroscopicity rating” value was “hygroscopic”.
